Laboratory results published in patent US12319721B2 (Purdue Research Foundation, priority 2018, dated 2025).
Where no end group is shown, it is not given here. [ ]: non-standard residue; d: D form. mp4 = 4 mini PEG linker

Key:
[1] = tested on: healed fractured femur; test: Femur fracture model, postmortem four-point bend of the healed femur; assay type: in vivo, Swiss Webster mice; conditions: 16 days, 0.1, 1 and 10 nmol daily subcutaneous, n=5
[2] = tested on: fracture callus of fractured femur; test: Femur fracture model, microCT of the fracture callus, CD-1 mice; assay type: in vivo, CD-1 male mice; conditions: 4 weeks, 50 nmol daily subcutaneous (50×), n=10
Procedure: The targeted conjugates were synthesized using standard Fmoc solid-phase peptide synthesis, as described above. To ensure the conjugates' activity, mouse pre osteo-blast (MCTC3-1) cells were treated with the targeted and untargeted compounds for three days at concentrations from 1 pM to 100 nM. After three days of treatment, the cells were harvested, and the ribonucleic acid (RNA) was purified from the cells. Expression levels of ALP, RUNx2, OSX, osteo-pontin (OPN), collagen 1A (Col-1A), OPG, RANKL, scle-rostin gene (SOST), and OC were quantified via quantitative reverse transcription polymerase chain reaction (RT-qPCR). Once the biological activity of the conjugates was confirmed, they were tested in vivo in a fracture model. Aseptic surgical techniques were used to place a 23-gage needle as in intramedullary nail in the femur of anesthetized, 12-week-old Swiss Webster mice for internal fixation before fracture. Femur fractures were induced using a drop weight fracture device from RISystem. The mice received buprenorphine for three days post fracture. […] Fracture healing was assessed using microCT (Scanco Medical Ag). Morphometric parameters were quantified in the 100 widest slices of the fracture callus. Trabecular thickness (TbTh), trabecular spacing (TbSp), total volume (TV), and volume of calcified callus (BV) were calculated. […]

[3] = tested on: healed fractured femur; test: Femur fracture model, postmortem four-point bend of the healed femur, CD-1 mice; assay type: in vivo, CD-1 male mice; conditions: 4 weeks, 50 nmol daily subcutaneous (50×), n=10
Procedure: The targeted conjugates were synthesized using standard Fmoc solid-phase peptide synthesis, as described above. To ensure the conjugates' activity, mouse pre osteo-blast (MCTC3-1) cells were treated with the targeted and untargeted compounds for three days at concentrations from 1 pM to 100 nM. After three days of treatment, the cells were harvested, and the ribonucleic acid (RNA) was purified from the cells. Expression levels of ALP, RUNx2, OSX, osteo-pontin (OPN), collagen 1A (Col-1A), OPG, RANKL, scle-rostin gene (SOST), and OC were quantified via quantitative reverse transcription polymerase chain reaction (RT-qPCR). Once the biological activity of the conjugates was confirmed, they were tested in vivo in a fracture model. Aseptic surgical techniques were used to place a 23-gage needle as in intramedullary nail in the femur of anesthetized, 12-week-old Swiss Webster mice for internal fixation before fracture. Femur fractures were induced using a drop weight fracture device from RISystem. The mice received buprenorphine for three days post fracture. The mice were dosed subcutaneously each day for two weeks, three weeks, 4 weeks, or 17 days. Fracture healing was assessed using microCT (Scanco Medical Ag). Morphometric parameters were quantified in the 100 widest slices of the fracture callus. Trabecular thickness (TbTh), trabecular spacing (TbSp), total volume (TV), and volume of calcified callus (BV) were calculated. Fractured femurs were tested for strength in a four-point bend to failure using an Electro Force TestBench (TA Instruments). Lower supports were 10 mm apart on the anterior face of the femur in contact with the proximal and distal diaphysis. Upper supports were 4 mm apart and spanned the entire fracture callus on the diaphysis. Force was applied from the posterior face of the femur with a displacement rate of 0.3 mm/sec. Peak load, yield load, stiffness, displacement post yield, work to fracture, and deformation data were generated. […]

[4] = tested on: healed fractured femur; test: Femur fracture model, postmortem four-point bend of the healed femur; assay type: in vivo, Swiss Webster mice
From the text: All in vivo data included herein are from Swiss Webster mice. All mice received an osteotomy on their right femur and received subcutaneous drug administration daily for either 2, 3 or 4 weeks, as indicated, for each compound. 1×concentration represents 1 nmol/day, 10× represents 10 nmol/day, 100×represents 100 nmol/day and most studies have an n of 5.
The term “Peak Load” means a postmortem 4 point bend of the healed femur. Peak load represents the maximum force the healed femur withstood before it refractured.
(§1) The targeted conjugates were synthesized using standard Fmoc solid-phase peptide synthesis, as described above. To ensure the conjugates' activity, mouse pre osteo-blast (MCTC3-1) cells were treated with the targeted and untargeted compounds for three days at concentrations from 1 pM to 100 nM. After three days of treatment, the cells were harvested, and the ribonucleic acid (RNA) was purified from the cells. Expression levels of ALP, RUNx2, OSX, osteo-pontin (OPN), collagen 1A (Col-1A), OPG, RANKL, scle-rostin gene (SOST), and OC were quantified via quantitative reverse transcription polymerase chain reaction (RT-qPCR). Once the biological activity of the conjugates was confirmed, they were tested in vivo in a fracture model. Aseptic surgical techniques were used to place a 23-gage needle as in intramedullary nail in the femur of anesthetized, 12-week-old Swiss Webster mice for internal fixation before fracture. Femur fractures were induced using a drop weight fracture device from RISystem. The mice received buprenorphine for three days post fracture. The mice were dosed subcutaneously each day for two weeks, three weeks, 4 weeks, or 17 days. Fracture healing was assessed using microCT (Scanco Medical Ag). Morphometric parameters were quantified in the 100 widest slices of the fracture callus. Trabecular thickness (TbTh), trabecular spacing (TbSp), total volume (TV), and volume of calcified callus (BV) were calculated. Fractured femurs were tested for strength in a four-point bend to failure using an Electro Force TestBench (TA Instruments). Lower supports were 10 mm apart on the anterior face of the femur in contact with the proximal and distal diaphysis. Upper supports were 4 mm apart and spanned the entire fracture callus on the diaphysis. Force was applied from the posterior face of the femur with a displacement rate of 0.3 mm/sec. Peak load, yield load, stiffness, displacement post yield, work to fracture, and deformation data were generated. Statistical analysis was performed using a two-way analysis of variance (ANOVA) and a Tukey post-hoc analysis with significance reported at the 95% confidence level. All animal experiments were performed in accordance with protocols approved by Purdue University's Institutional Animal Care and Use Committee (IACUC).

[5] = tested on: fracture callus of fractured femur; test: Femur fracture model, microCT of the fracture callus (BV/TV, BV, TbTh, TbSp); assay type: in vivo, Swiss Webster mice
From the text: All in vivo data included herein are from Swiss Webster mice. […] 1×concentration represents 1 nmol/day, 10× represents 10 nmol/day, 100×represents 100 nmol/day and most studies have an n of 5.
The term “BV/TV” means the bone volume divided by total volume of the 100 thickest micro CT slices of the fracture callus.
The term “TbTh” means the trabecular thickness of the 100 thickest micro CT slices of the fracture callus.
The term “[…]” means the overall bone volume of the 100 thickest micro CT slices of the fracture callus.
The term “TbSp” means the spacing between the trabecula in the 100 thickest micro CT slices of the fracture callus.
as §1, with “The mice were dosed subcutaneously each day for two weeks, three weeks, 4 weeks, or 17 days.” left out

[6] = 17 days, 1, 10 and 100 nmol daily subcutaneous, n=5

Annexin_mp4_(D)E10: Annexin 1 N-terminal fragment with 10 glutamic acids, SEQ ID NO: 26, FIG. 81 (Ac-AMVSEFLKQAWFIENEEQEYVQTVY-{mini PEG-mini PEG-mini PEG-mini PEG-dE-dE-dE-dE-dE-dE-dE-dE-dE-dE})
Max load (bone strength) [1]: raises bone strength | Work to fracture (bone strength) [1]: raises bone strength

Preptin(1-34)_mp4_(D)E10: Preptin (1-34) with mp4 linker and 10 glutamic acids, SEQ ID NO: 24, FIG. 70 ({dE-dE-dE-dE-dE-dE-dE-dE-dE-dE-mp4}-VRGASQRWTDYQFFGVPYRPFDPLVAQSTSVD)
BV (bone volume, bone mineralization) [2]: significantly raises bone mineralization | BV/TV (bone density) [2]: significantly raises bone density | Max load (bone strength) [3]: significantly raises bone strength | Post yield displacement (bone brittleness) [3]: significantly reduces the bone brittleness | Work to fracture (bone strength) [3]: significantly raises bone strength

QK_mp4_(D)E10: VEGF mimetic 15 amino acid peptide QK attached by mini-peg spacer to 10 glutamic acids, SEQ ID NO: 25 ({dE-dE-dE-dE-dE-dE-dE-dE-dE-dE-mp4}-KLTWQELYQLKYKGI)
Max load (bone strength) [4, 6]: raises bone strength | Work to fracture (bone strength) [4, 6]: raises bone strength | BV (bone volume, bone mineralization) [5, 6]: raises bone mineralization | BV/TV (bone density) [5, 6]: raises bone density

substance P D10: substance P with 4 mini PEG linker and conjugated with 10 aspartate acids, SEQ ID NO: 4/43, FIG. 32 (chain 1 {Asp-Asp-Asp-Asp-Asp-Asp-Asp-Asp-Asp-Asp-mp4}-RPKPQQFFGLM; chain 2 DDDDDDDDDD[mp4]RPKPQQFFGLM; ends and bridges not checked)
peak load (max load) of healed femur ([4]; 4 weeks, 10× (10 nmol/day)): 30-35 Newtons | BV/TV ([5]; 4 weeks, various concentrations (1, 10 and in part 100 nmol/day), subcutaneous daily): dose dependent manner
